Laboratory results taken from PMC9578396, “Intrinsic Antibacterial Activity of Xeruborbactam In Vitro: Assessing Spectrum and Mode of Action” (Antimicrobial Agents and Chemotherapy, 2022).
Values after ≈ are worked out from the molar mass of the structure shown. Read-outs that look alike come from different tables or passages of the source.

Experiments:
Type in all cases: cell-based
Klebsiella pneumoniae = experiment: microbe, parasite or virus in culture; conditions: Klebsiella pneumoniae
From the text: (§1) (i) Panels of engineered bacterial strains containing various combinations of porin and efflux mutations were used. The construction of all the strains used in the study is described in detail in references, [44], and [45]. (ii) KPC-producing clinical isolates and their derivatives that lost KPC plasmids were used also. These strains and their origins are described in the Table S2. (iii) Finally, KPC-producing clinical isolates enriched in strains with porin mutations were used. The mutations identified include various deletions, insertions, nonsense mutations, and decreased expression. Most of the isolates were obtained from JMI Laboratories or International Health Management Associates (IHMA); they were collected in the course of global surveillance studies.
(§2) Bacterial isolates were subjected to broth microdilution susceptibility testing, performed according to Clinical and Laboratory Standards Institute (CLSI) methods ([46]), using panels prepared in-house. […] Xeruborbactam was synthesized at Qpex Biopharma, San Diego, CA. Avibactam was purchased from eNovation Chemicals LLC, Bridgewater, NJ, USA; zidebactam was from MedKoo Biosciences, Inc., Morrisville, NC, and nacubactam was from Advanced ChemBlocks, Hayward, CA. Durlobactam was synthesized at Acme Bioscience, Palo Alto, CA, USA.

Enterococcus faecalis = experiment: MIC, Enterococcus faecalis
From the text: (§3) Bacterial isolates were subjected to broth microdilution susceptibility testing, performed according to Clinical and Laboratory Standards Institute (CLSI) methods ([46]), using panels prepared in-house. Meropenem was purchased from Sandoz, and all other antibiotics were from Sigma-Aldrich. Xeruborbactam was synthesized at Qpex Biopharma, San Diego, CA. Avibactam was purchased from eNovation Chemicals LLC, Bridgewater, NJ, USA; zidebactam was from MedKoo Biosciences, Inc., Morrisville, NC, and nacubactam was from Advanced ChemBlocks, Hayward, CA. Durlobactam was synthesized at Acme Bioscience, Palo Alto, CA, USA.

Staphylococcus aureus = experiment: MIC, Staphylococcus aureus (MSSA, MRSA)
From the text: as §3

Streptococcus pneumoniae = experiment: MIC, Streptococcus pneumoniae; conditions: Streptococcus pneumoniae, read-out: MIC
From the text: as §3

Pseudomonas aeruginosa = experiment: Broth microdilution MIC (CLSI), Pseudomonas aeruginosa; conditions: Pseudomonas aeruginosa
From the text: as §1, §2

Escherichia coli = experiment: Broth microdilution MIC (CLSI), Escherichia coli; conditions: Escherichia coli
From the text: as §1, §2

Acinetobacter baumannii = experiment: Broth microdilution MIC (CLSI), Acinetobacter baumannii; conditions: Acinetobacter baumannii
From the text: as §1, §2

[1] = tested on: Enterobacter cloacae species complex; experiment: Broth microdilution MIC (CLSI), Enterobacter cloacae; conditions: Enterobacter cloacae, read-out: MIC
From the text: as §3

## C[C@H]1COc2c(N3CCN(C)CC3)c(F)cc3c(=O)c(C(=O)O)cn1c23 [Levofloxacin]
Klebsiella pneumoniae; strain KPM1026a, read-out: MIC
  MIC: 0.06 µg/mL
Enterococcus faecalis; efs003
  MIC: 0.5 µg/mL (≈ 1.38 µM)
Enterococcus faecalis; efs004
  MIC: 1 µg/mL (≈ 2.77 µM)
Enterococcus faecalis; efs005
  MIC: 1 µg/mL (≈ 2.77 µM)
Enterococcus faecalis; efs006
  MIC: 1 µg/mL (≈ 2.77 µM)
Enterococcus faecalis; efs007
  MIC: 1 µg/mL (≈ 2.77 µM)
Enterococcus faecalis; efs026
  MIC: 0.5 µg/mL (≈ 1.38 µM)
Enterococcus faecalis; efs071
  MIC: 32 µg/mL (≈ 88.6 µM)
Enterococcus faecalis; efs072
  MIC: 16 µg/mL (≈ 44.3 µM)
Enterococcus faecalis; efs073
  MIC: 1 µg/mL (≈ 2.77 µM)
Enterococcus faecalis; efs090
  MIC: 32 µg/mL (≈ 88.6 µM)
Enterococcus faecalis; efs091
  MIC: 32 µg/mL (≈ 88.6 µM)
Enterococcus faecalis; efs092
  MIC: 32 µg/mL (≈ 88.6 µM)
Enterococcus faecalis; efs093
  MIC: 16 µg/mL (≈ 44.3 µM)
Enterococcus faecalis; efs094
  MIC: 32 µg/mL (≈ 88.6 µM)
Enterococcus faecalis; efs095
  MIC: 2 µg/mL (≈ 5.53 µM)
Enterococcus faecalis; efs096
  MIC: 32 µg/mL (≈ 88.6 µM)
Staphylococcus aureus; Staphylococcus aureus, ATCC 29213 / MSSA
  MIC: 0.125 µg/mL (≈ 0.346 µM)
Staphylococcus aureus; Staphylococcus aureus, MRSA
  MIC: 0.125 µg/mL (≈ 0.346 µM)
Staphylococcus aureus; Staphylococcus aureus, MRSA, sa001, MRSA, read-out: MIC
  MIC: 8 µg/mL (≈ 22.1 µM)
Staphylococcus aureus; Staphylococcus aureus, MRSA, sa010, MRSA, read-out: MIC
  MIC: 8 µg/mL (≈ 22.1 µM)
Staphylococcus aureus; Staphylococcus aureus, MRSA, sa013, MRSA, read-out: MIC
  MIC: 0.25 µg/mL (≈ 0.692 µM)
Staphylococcus aureus; Staphylococcus aureus, MRSA, sa148, MRSA, read-out: MIC
  MIC: 16 µg/mL (≈ 44.3 µM)
Staphylococcus aureus; Staphylococcus aureus, MRSA, sa150, MRSA, read-out: MIC
  MIC: 8 µg/mL (≈ 22.1 µM)
Staphylococcus aureus; Staphylococcus aureus, MRSA, sa151, MRSA, read-out: MIC
  MIC: 16 µg/mL (≈ 44.3 µM)
Staphylococcus aureus; Staphylococcus aureus, MRSA, sa153, MRSA, read-out: MIC
  MIC: 16 µg/mL (≈ 44.3 µM)
Staphylococcus aureus; Staphylococcus aureus, MRSA, sa278, MRSA, read-out: MIC
  MIC: 32 µg/mL (≈ 88.6 µM)
Staphylococcus aureus; Staphylococcus aureus, MRSA, sa279, MRSA, read-out: MIC
  MIC: 2 µg/mL (≈ 5.53 µM)
Staphylococcus aureus; Staphylococcus aureus, MRSA, sa280, MRSA, read-out: MIC
  MIC: 2 µg/mL (≈ 5.53 µM)
Staphylococcus aureus; Staphylococcus aureus, MRSA, sa281, MRSA, read-out: MIC
  MIC: 32 µg/mL (≈ 88.6 µM)
Staphylococcus aureus; Staphylococcus aureus, MSSA
  MIC: 0.125 µg/mL (≈ 0.346 µM)
Staphylococcus aureus; Staphylococcus aureus, MSSA, sa006, MSSA, read-out: MIC
  MIC: 0.06 µg/mL (≈ 0.166 µM)
Staphylococcus aureus; Staphylococcus aureus, MSSA, sa008, MSSA, read-out: MIC
  MIC: 0.25 µg/mL (≈ 0.692 µM)
Staphylococcus aureus; Staphylococcus aureus, MSSA, sa011, MSSA, read-out: MIC
  MIC: 0.25 µg/mL (≈ 0.692 µM)
Staphylococcus aureus; Staphylococcus aureus, MSSA, sa012, MSSA, read-out: MIC
  MIC: 0.25 µg/mL (≈ 0.692 µM)
Staphylococcus aureus; sa002, MSSA
  MIC: 0.125 µg/mL (≈ 0.346 µM)
Staphylococcus aureus; sa003, MSSA
  MIC: 0.125 µg/mL (≈ 0.346 µM)
Staphylococcus aureus; sa004, MSSA
  MIC: 0.125 µg/mL (≈ 0.346 µM)
Staphylococcus aureus; sa005, MSSA
  MIC: 0.125 µg/mL (≈ 0.346 µM)
Staphylococcus aureus; sa007, MSSA
  MIC: 0.125 µg/mL (≈ 0.346 µM)
Staphylococcus aureus; sa009, MSSA
  MIC: 0.125 µg/mL (≈ 0.346 µM)
Staphylococcus aureus; sa152, MRSA
  MIC: 0.125 µg/mL (≈ 0.346 µM)
Streptococcus pneumoniae; sp001
  MIC: 0.5 µg/mL (≈ 1.38 µM)
Streptococcus pneumoniae; sp002
  MIC: 0.5 µg/mL (≈ 1.38 µM)
Streptococcus pneumoniae; sp003
  MIC: 1 µg/mL (≈ 2.77 µM)
Streptococcus pneumoniae; sp004
  MIC: 1 µg/mL (≈ 2.77 µM)
Streptococcus pneumoniae; sp005
  MIC: 0.5 µg/mL (≈ 1.38 µM)
Streptococcus pneumoniae; sp006
  MIC: 0.5 µg/mL (≈ 1.38 µM)
Streptococcus pneumoniae; sp007
  MIC: 1 µg/mL (≈ 2.77 µM)
Streptococcus pneumoniae; sp008
  MIC: 0.5 µg/mL (≈ 1.38 µM)
Streptococcus pneumoniae; sp009
  MIC: 1 µg/mL (≈ 2.77 µM)
Streptococcus pneumoniae; sp117
  MIC: 2 µg/mL (≈ 5.53 µM)
Streptococcus pneumoniae; sp118
  MIC: 1 µg/mL (≈ 2.77 µM)
Streptococcus pneumoniae; sp119
  MIC: 1 µg/mL (≈ 2.77 µM)
Streptococcus pneumoniae; sp120
  MIC: 1 µg/mL (≈ 2.77 µM)
Streptococcus pneumoniae; sp121
  MIC: 1 µg/mL (≈ 2.77 µM)
Streptococcus pneumoniae; sp122
  MIC: 32 µg/mL (≈ 88.6 µM)
Streptococcus pneumoniae; sp123
  MIC: 0.5 µg/mL (≈ 1.38 µM)
Streptococcus pneumoniae; sp125
  MIC: 1 µg/mL (≈ 2.77 µM)
Streptococcus pneumoniae; sp126
  MIC: 1 µg/mL (≈ 2.77 µM)

## NCCONC(=O)[C@@H]1CC[C@@H]2CN1C(=O)N2OS(=O)(=O)O [Nacubactam]
Klebsiella pneumoniae; strain KPM1026a, wild type, read-out: MIC
  MIC: 8 µg/mL
Klebsiella pneumoniae; strain KPM1027, ramR, read-out: MIC
  MIC: 4 µg/mL
Klebsiella pneumoniae; strain KPM1171, ramR ompK36_1171, read-out: MIC
  MIC: > 64 µg/mL
Klebsiella pneumoniae; strain KPM2040, ompK36_2040, read-out: MIC
  MIC: > 64 µg/mL
Klebsiella pneumoniae; strain KPM2600, ΔompK35
  MIC: 8 µg/mL
Klebsiella pneumoniae; strain KPM2613, ΔompK35 ompK36_2040
  MIC: > 64 µg/mL
Klebsiella pneumoniae; strain KPM2696, ΔacrB
  MIC: 2 µg/mL
Pseudomonas aeruginosa; strain PAM1020, wild type, read-out: MIC
  MIC: 128 µg/mL
Pseudomonas aeruginosa; strain PAM1032, nalB (MexAB-OprM overexpression)
  MIC: 128 µg/mL
Pseudomonas aeruginosa; strain PAM1033, nfxB (MexCD-OprJ overexpression)
  MIC: 32 µg/mL
Pseudomonas aeruginosa; strain PAM1034, nfxC (MexEF-OprN overexpression)
  MIC: 128 µg/mL
Pseudomonas aeruginosa; strain PAM1106, mexA::Tet
  MIC: 128 µg/mL
Pseudomonas aeruginosa; strain PAM1154, oprM::Hg
  MIC: 128 µg/mL
Escherichia coli; strain ECM5497, wild type, read-out: MIC
  MIC: 4 µg/mL
Escherichia coli; strain ECM6001, ΔacrB
  MIC: 4 µg/mL
Escherichia coli; strain ECM6502, marR (AcrAB overexpression)
  MIC: 2 µg/mL
Acinetobacter baumannii; strain AB1007, wild type, read-out: MIC
  MIC: > 256 µg/mL
Acinetobacter baumannii; strain ACM1013, ΔadeIJK
  MIC: > 256 µg/mL
Acinetobacter baumannii; strain ACM1014, ΔadeABC
  MIC: > 256 µg/mL
Acinetobacter baumannii; strain ACM1015, ΔadeIJK ΔadeABC
  MIC: > 256 µg/mL
Acinetobacter baumannii; strain ACM1027, adeN (AdeIJK overexpression)
  MIC: > 256 µg/mL
Acinetobacter baumannii; strain ACM1030, adeS (AdeABC overexpression)
  MIC: > 256 µg/mL

## CN(C)c1cc(NC(=O)CNC(C)(C)C)c(O)c2c1C[C@H]1C[C@H]3[C@H](N(C)C)C(O)=C(C(N)=O)C(=O)[C@@]3(O)C(O)=C1C2=O [Tigecycline]
Klebsiella pneumoniae; clinical isolate KP1004, OmpK35 NF, OmpK36 FN, read-out: MIC
  MIC: 1 µg/mL
Klebsiella pneumoniae; clinical isolate KP1070, OmpK35 NF, OmpK36 FN, read-out: MIC
  MIC: 1 µg/mL
Klebsiella pneumoniae; clinical isolate KP1074, OmpK35 NF, OmpK36 PFN (GD), read-out: MIC
  MIC: 0.5 µg/mL
Klebsiella pneumoniae; clinical isolate KP1093, OmpK35 NF, OmpK36 PFN (GD), read-out: MIC
  MIC: 1 µg/mL
Klebsiella pneumoniae; clinical isolate KP1251, OmpK35 NF, OmpK36 FN, read-out: MIC
  MIC: 1 µg/mL
Klebsiella pneumoniae; clinical isolate KP1274, OmpK35 FN, OmpK36 FN, read-out: MIC
  MIC: 1 µg/mL
Klebsiella pneumoniae; clinical isolate KP1463, OmpK35 NF, OmpK36 NF, read-out: MIC
  MIC: 1 µg/mL
Klebsiella pneumoniae; clinical isolate KP1469, OmpK35 NF, OmpK36 NF, read-out: MIC
  MIC: 4 µg/mL
Klebsiella pneumoniae; clinical isolate KP1598, OmpK35 NF, OmpK36 PFN (GD), read-out: MIC
  MIC: 4 µg/mL
[1]; clinical isolate ECL1057, OmpK35 FN, OmpK36 NF
  MIC: 8 µg/mL (≈ 13.7 µM)
[1]; clinical isolate ECL1079, OmpK35 NF, OmpK36 NF
  MIC: 4 µg/mL (≈ 6.83 µM)
[1]; clinical isolate ECL1126, OmpK35 FN, OmpK36 FN
  MIC: 2 µg/mL (≈ 3.41 µM)
[1]; clinical isolate ECL1131, OmpK35 NF, OmpK36 FN
  MIC: 2 µg/mL (≈ 3.41 µM)
Escherichia coli; clinical isolate EC1078, OmpK35 NF, OmpK36 NF, read-out: MIC
  MIC: 0.5 µg/mL
Escherichia coli; clinical isolate EC1081, OmpK35 FN, OmpK36 FN, read-out: MIC
  MIC: 0.5 µg/mL
Escherichia coli; clinical isolate EC1085, OmpK35 FN, OmpK36 FN, read-out: MIC
  MIC: 0.25 µg/mL
Escherichia coli; clinical isolate EC1088, OmpK35 FN, OmpK36 FN, read-out: MIC
  MIC: 0.125 µg/mL
Escherichia coli; clinical isolate EC1097, OmpK35 FN, OmpK36 FN, read-out: MIC
  MIC: 1 µg/mL
Escherichia coli; clinical isolate EC1098, OmpK35 NF, OmpK36 FN, read-out: MIC
  MIC: 1 µg/mL
Escherichia coli; clinical isolate EC1119, OmpK35 NF, OmpK36 NF, read-out: MIC
  MIC: 4 µg/mL
Escherichia coli; clinical isolate EC1121, OmpK35 NF, OmpK36 FN, read-out: MIC
  MIC: 0.25 µg/mL
